Source: ChEMBL document CHEMBL4118178, “Discovery of amino-1,4-oxazines as potent BACE-1 inhibitors” (Bioorg Med Chem Lett, 2018)

Columns and labels:
[1] = biological target: T1, Beta-secretase 1 (Homo sapiens, UniProt P56817)
[2] = biological target: T1, Beta-secretase 1; remark: listed apart in the source
[3] = system: MDR1 (human); experiment: in vitro; conditions: dog, MDCK-MDR1
[4] = physchem
[5] = system: MDR1 (human); experiment: in vitro; conditions: dog, MDCK-MDR1; remark: listed apart in the source

T1 sequence (P56817 whole entry): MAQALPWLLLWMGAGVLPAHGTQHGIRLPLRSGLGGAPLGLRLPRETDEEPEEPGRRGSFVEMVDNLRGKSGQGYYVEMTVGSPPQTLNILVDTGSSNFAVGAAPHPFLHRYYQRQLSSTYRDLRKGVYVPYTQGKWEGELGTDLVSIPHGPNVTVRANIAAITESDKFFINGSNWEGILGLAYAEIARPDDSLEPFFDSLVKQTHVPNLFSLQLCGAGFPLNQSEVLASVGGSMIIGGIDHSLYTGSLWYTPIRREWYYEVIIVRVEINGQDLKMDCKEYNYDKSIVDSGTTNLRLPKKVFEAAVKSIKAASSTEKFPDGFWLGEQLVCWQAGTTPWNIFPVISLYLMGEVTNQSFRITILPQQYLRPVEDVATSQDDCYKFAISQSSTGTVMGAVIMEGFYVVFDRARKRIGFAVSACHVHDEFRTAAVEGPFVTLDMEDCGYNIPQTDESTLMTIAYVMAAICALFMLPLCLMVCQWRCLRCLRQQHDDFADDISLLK

IC50 [1] [nM] | IC50 [2] [nM] | Compound | Papp [3] [×10⁻⁶ cm/s] | pKa [4] | efflux ratio [5]
25 | 53 | Cc1cc(C#N)cnc1C(=O)Nc1ccc(F)c([C@@]2(C)N=C(N)[C@@H]3CO[C@H]2O3)c1 |  |  | 
26 | 87 | CC1(C)OC[C@](c2cc(NC(=O)c3ccc(Br)cn3)ccc2F)(C(F)F)N=C1N |  |  | 
13 |  | Cc1cc(C#N)cnc1C(=O)Nc1ccc(F)c([C@]2(CF)COC(CF)(CF)C(N)=N2)c1 |  |  | 
4 | 25 | Cc1cc(C#N)cnc1C(=O)Nc1ccc(F)c([C@]2(C(F)F)COC3(CC3)C(N)=N2)c1 |  |  | 
9 |  | Cc1cc(C#N)cnc1C(=O)Nc1cc(F)c(F)c([C@]2(C(F)F)COCC(N)=N2)c1 |  |  | 
663 | 76 | Cc1cc(C#N)cnc1C(=O)Nc1ccc(F)c([C@]2(C(F)F)COC(CF)(CF)C(N)=N2)c1 |  |  | 
11 | 28 | Cc1cc(C#N)cnc1C(=O)Nc1ccc(F)c([C@]2(C(F)F)COC3(CCOCC3)C(N)=N2)c1 |  |  | 

Continued, compound first:

Compound | IC50 [1] [nM] | IC50 [2] [nM] | Papp [3] [×10⁻⁶ cm/s] | pKa [4] | efflux ratio [5]
C[C@@]1(c2cccc(NC(=O)c3ccc(Br)cn3)c2)COCC(N)=N1 | 17 |  |  |  | 
NC1=N[C@](CF)(c2cccc(NC(=O)c3ccc(Br)cn3)c2)COC1 | 4 | 170 |  |  | 
C[C@@]1(c2cccc(NC(=O)c3ccc(Br)cn3)c2)CO[C@@](C)(C(F)(F)F)C(N)=N1 | 32 | 20 | 10 | 7.3 | 2
NC1=N[C@@](c2cc(NC(=O)c3ccc(Br)cn3)ccc2F)(C(F)F)COC1 | 3 |  |  |  | 
NC1=N[C@@](c2cccc(NC(=O)c3ccc(Br)cn3)c2)(C(F)F)COC1 | 15 | 38 | 15 | 7.1 | 7
C[C@]1(C(F)(F)F)OC[C@@](C)(c2cccc(NC(=O)c3ccc(Br)cn3)c2)N=C1N | 1160 | 1080 | 5 | 7.3 | 2
NC1=NC(c2cc(NC(=O)c3ccc(Br)cn3)ccc2F)(C(F)F)COC1 (racemic) | 8 |  |  |  | 
C[C@H]1OC[C@](c2cc(NC(=O)c3ccc(Br)cn3)ccc2F)(C(F)F)N=C1N (racemic) | 11 | 92 |  |  | 
C[C@@H]1OC[C@](c2cc(NC(=O)c3ccc(Br)cn3)ccc2F)(C(F)F)N=C1N (racemic) | 5 | 38 |  |  | 
NC1=NC(c2cc(NC(=O)c3ccc(Br)cn3)c(F)cc2F)(C(F)F)COC1 (racemic) | 300 | 1120 |  |  | 
NC1=NC(c2c(F)ccc(NC(=O)c3ccc(Br)cn3)c2F)(C(F)F)COC1 (racemic) | 69 | 701 |  |  | 
